# Assay results: US9884031B2, “Use of HDAC inhibitors for treatment of cardiac rhythm disorders” (THE TRUSTEES OF THE UNIVERSITY OF PENNSYLVANIA, priority 2007, dated 2018)
# “Also recorded” adds a separate entry of the source. Marks after values point to notes of the source that are not given here.
# Key:
# [1] = tested on: Hop transgenic mice (Hop^Tg); test: Invasive hemodynamic measurements; type: in vivo, mouse; details: for Effect upon LVEDP, systolic contraction (peak positive dP/dt) and diastolic relaxation (peak negative dP/dt), in words: TSA-Hop^Tg vs Hop^Tg, treatment initiated at 12-14 weeks of age
# Method: Hop^Tg mice 14-18 weeks old were compared with wild-type littermates and TSA treated Hop^Tg mice. Anesthesia was induced with 3% isoflurane and maintained by ventilation with 0.75% isoflurane. Temperature was maintained at 36-37° C. Intracardiac pressures were recorded using a 1.4 French micromanometer catheter (Micro-Tip SPR-671; Millar Instruments) that was zeroed prior to making measurements on each animal in a saline bath. The catheter was inserted via the right carotid artery to record intracardiac pressures and digitized at 2-kHz using a PowerLab/16 SP A/D converter (ADInstruments Ltd.).
# (§1) Trichostatin A 0.6 mg/kg daily in a volume of 0.2 mL was given by intraperitoneal injection for 14 consecutive days upon inducible atrial arrhythmias and atrial structurally remodeling in an engineered mouse model with left ventricular hypertrophy and inducible atrial fibrillation. Transgenic mice over-expressing the homeodomain-only protein (Hop^Tg), which promotes cardiac hypertrophy and interstitial fibrosis, were divided into three groups: control, Hop^Tg mice and Hop^Tg mice treated with trichostatin A.
# (§2) Hop^Tg mice had higher left ventricular end-diastolic pressure (LVEDP), and reduced peak systolic contraction and diastolic relaxation compared to WT mice. However, trichostatin A had no effect upon the LVEDP, systolic contraction or diastolic relaxation when treatment was initiated in animals aged 12-14 weeks of age. These parameters were similar between Hop^Tg and TSA-Hop^Tg mice, though still abnormal when compared to WT mice. In addition, the heart weight to tibia length ratio (HW/TL) was higher in Hop^Tg and TSA-Hop^Tg mice compared to WT, but there was no difference in the HW/TL between Hop^Tg and TSA-Hop^Tg mice. *P<0.05 compared to WT; ^†P<0.05 compared to TSA-Hop^Tg.
# connexin40 = test: Immunoblot analysis of atrial connexin40; type: in vivo, mouse; details: TSA-treated Hop transgenic mice, FIG. 3A
# Method: (§3) Adult mouse atrium and ventricle were dissected and homogenized in buffer containing 1% Igepal surfactant, 0.5% deoxycholate sodium, 2% SDS, 5 mmol EDTA (pH=7.4), 1% protease inhibitor cocktail tablet (Roche) with and without phosphatase inhibitor cocktail (Sigma-Aldrich). Samples were cleared of debris by centrifugation at 5000 g for 10 min. and the protein concentration was determined using a BCA protein assay kit (Pierce). Protein samples were run on a 4-12% gradient pre-cast SDS-PAGE gel (Invitrogen), and after electrophoresis were transferred onto PVDF membranes (Millipore) using 0.1% acetic acid/10% methanol as a transfer buffer. Membranes were incubated with primary antibodies in 5% milk and PBS overnight at 4° C. and then washed for 5 min, 4 times with TBS-T solution. […] Results were visualized by enhanced chemiluminescence using a commercially available kit (Western Breeze, Invitrogen) and data were recorded on BioMax-MR film (Kodak, Rochester, N.Y.). Densitometry was determined using the Image-J software package (National Institutes of Health). […]
# HopX^Tg mice = test: Echocardiographic analysis of ventricular structure and function; type: in vivo, mouse
# Method: To better characterize the effects of TSA upon ventricular structure and function, echocardiographic analysis of HopX^Tg, TSA-HopX^Tg and WT mice was performed. […] However, TSA had no effect upon these parameters as ventricular wall thickness and systolic function were similar between HopX^Tg and TSA-HopX^Tg mice (Table 4), consistent with the hemodynamic analysis of these animals.
# [2] = tested on: Hop transgenic mice (Hop^Tg); test: Masson's trichrome staining for collagen as marker of fibrosis; type: in vivo, mouse; details: FIG. 1; for Atrial fibrosis (in words): TSA-treated Hop transgenic mice vs untreated
# Method: Hearts were excised from, washed in 37° C. Dulbecco's 1×PBS, arrested in 50 mmol/L KCl, and fixed in 4% formalin. Fixed hearts were cut transversely and sectioned serially from ventricular apex to base. Two sections (5 μm each) were retained at the beginning of each 50-μm step. Sections were stained with Masson's trichrome stain for collagen as a marker of fibrosis. Quantification of the proportion of fibrosis in each heart was then performed with scientific imaging software (Image-J, National Institutes of Health)) and high-resolution serial scanning technique. Histological sections from the entire left ventricle and both atrium were used for analysis from three different hearts.
# as §1
# [3] = tested on: models of pressure-overload and angiotensin-induced hypertrophy; details: cited from earlier work
# phospho-p38-MAPK = test: Western blot of atrium: phospho-p38-MAPK; type: in vivo, mouse; details: between Hop^Tg, TSA-Hop^Tg or control mice, FIG. 2C
# Method: as §3
# phospho-JNK = test: Western blot of atrium: phospho-JNK; type: in vivo, mouse; details: between Hop^Tg, TSA-Hop^Tg or control mice, FIG. 2B
# Method: as §3
# activated TGF-β1 = test: Western blot of atrium: activated TGF-β1; type: in vivo, mouse; details: TSA-Hop^Tg mice relative to Hop^Tg, FIG. 2E
# Method: as §3
# [4] = tested on: Hop transgenic mice (HopX^Tg); test: Morphometric analysis of hearts (heart weight, atrial weight ratios); type: in vivo, mouse; details: for Heart weight to tibia length ratio (HW/TL), in words: TSA-Hop^Tg vs Hop^Tg mice
# Method: as §1, §2
# 3 week-old HopX^Tg mice = details: cited from earlier work
# [5] = TSA 0.6 mg/kg daily IP 14 days, Hop^Tg mice, n = 8, mean±SD
# [6] = TSA-treated HopX^Tg mice, n = 4, echocardiography
# [7] = TSA 0.6 mg/kg daily IP 14 days, HopX^Tg mice, n = 13, mean±SD
compound,measurement,setting,value
"CC(/C=C/C(=O)NO)=C\[C@@H](C)C(=O)c1ccc(N(C)C)cc1 [TSA, Trichostatin A]",Heart rate,[1]; [5],392 ± 63.5 bpm
same,LV end diastolic pressure,[1]; [5],7.2 ± 2.4* mmHg
same,LV systolic pressure,[1]; [5],90.6 ± 8.8 mmHg
same,Peak negative dP/dt,[1]; [5],−2267 ± 1320* mmHg/s
same,Peak positive dP/dt,[1]; [5],6465 ± 1613 mmHg/s
same,"Effect upon LVEDP, systolic contraction (peak positive dP/dt) and diastolic relaxation (peak negative dP/dt), in words",[1],no significant changes
same,"Effect upon LVEDP, systolic contraction (peak positive dP/dt) and diastolic relaxation (peak negative dP/dt), in words",[1]; listed as trichostatin A,no effect
same,Atrial connexin40 expression,connexin40,normalized
same,"Ventricular wall thickness and systolic function, in words","HopX^Tg mice; TSA-HopX^Tg vs HopX^Tg mice, echocardiography",no effect
same,Intra-ventricle Septum,HopX^Tg mice; [6],1.13 ± 0.18 mm
same,LV Ejection Fraction,HopX^Tg mice; [6],87.7 ± 7.00 %
same,LV Fractional Shortening,HopX^Tg mice; [6],53.9 ± 0.50 %
same,Left Ventricle Posterior Wall,HopX^Tg mice; [6],1.10 ± 0.14 mm
same,"Left ventricular wall dimensions, in words",HopX^Tg mice; older 14-18 week-old HopX^Tg mice treated with TSA,no change
same,Atrial fibrosis (in words),[2]; listed as Trichostatin A,reduced
same,Atrial fibrosis (in words),[2]; listed as trichostatin A,complete reversal of atrial fibrosis
same,Ventricular interstitial fibrosis (in words),[2]; three groups incl. TSA-Hop,no obvious ventricular interstitial fibrosis
same,"Myocardial mechanical function, in words",[3],improve
same,Phospho-p38-MAPK protein expression in atrium,phospho-p38-MAPK,not different
same,Phospho-JNK protein expression in atrium,phospho-JNK,not different
same,Activated TGF-β1 protein expression in atrium,activated TGF-β1,further decreased
same,Heart weight,[4]; [7],192.8 ± 15.5* mg
same,Heart weight/body weight,[4]; [7],7.4 ± 0.67* mg/g
same,"Heart weight to tibia length ratio (HW/TL), in words",[4]; 14-18 week-old,no significant changes; also recorded: no change
same,"Heart weight to tibia length ratio (HW/TL), in words","[4]; 14-18 week-old, listed as trichostatin A",no difference
same,"Atrial weight/tibial length ratio (AW/TL), in words","[4]; TSA-treated HopX^Tg vs HopX^Tg mice, 14-18 week-old",no significant changes; also recorded: no change
same,"Cardiac hypertrophy, in words",3 week-old HopX^Tg mice,partially reduces
